In patent US7517874B2 (priority 2007, dated 2009):
pEC50: −log10 of the molar value. Read-outs that look alike come from different tables or passages of the source.

What was measured:
rat CB2 receptor (rCB2) = biological target: T1, rat CB2 receptor (rCB2) (Rattus norvegicus, UniProt Q9QZN9); assay: cell-based; type: cell-based; conditions: for +/− RCB2: agonist or inverse agonist at rCB2
T1 sequence (Q9QZN9 1-360): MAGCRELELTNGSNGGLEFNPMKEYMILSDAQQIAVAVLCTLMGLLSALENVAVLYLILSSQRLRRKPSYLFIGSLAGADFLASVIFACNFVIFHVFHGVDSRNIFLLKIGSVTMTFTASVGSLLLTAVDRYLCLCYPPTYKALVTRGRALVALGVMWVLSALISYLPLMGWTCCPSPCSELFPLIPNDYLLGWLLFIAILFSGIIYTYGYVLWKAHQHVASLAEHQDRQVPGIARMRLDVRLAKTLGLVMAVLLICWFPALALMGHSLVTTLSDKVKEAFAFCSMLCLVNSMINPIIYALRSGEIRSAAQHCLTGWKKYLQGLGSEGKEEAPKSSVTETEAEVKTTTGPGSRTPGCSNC
Procedure, shortened: (§1)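 Readout: LANCE TR-FRET cAMP, back-calculated from a concurrent standard curve and scaled between forskolin-only and forskolin + 1 μM CP55,940 wells. EC50 and intrinsic activity came from four-parameter fits.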

[1] = biological target: human CB1 receptor (hCB1) (Homo sapiens, UniProt P21554); assay: cell-based; type: cell-based; conditions: for EC50: groups >100 nM-10 μM and >10 μM, cAMP, CHO-K1 hCB1, read-out: EC50 HCB1
Sequence of human CB1 receptor (hCB1) (P21554 whole entry): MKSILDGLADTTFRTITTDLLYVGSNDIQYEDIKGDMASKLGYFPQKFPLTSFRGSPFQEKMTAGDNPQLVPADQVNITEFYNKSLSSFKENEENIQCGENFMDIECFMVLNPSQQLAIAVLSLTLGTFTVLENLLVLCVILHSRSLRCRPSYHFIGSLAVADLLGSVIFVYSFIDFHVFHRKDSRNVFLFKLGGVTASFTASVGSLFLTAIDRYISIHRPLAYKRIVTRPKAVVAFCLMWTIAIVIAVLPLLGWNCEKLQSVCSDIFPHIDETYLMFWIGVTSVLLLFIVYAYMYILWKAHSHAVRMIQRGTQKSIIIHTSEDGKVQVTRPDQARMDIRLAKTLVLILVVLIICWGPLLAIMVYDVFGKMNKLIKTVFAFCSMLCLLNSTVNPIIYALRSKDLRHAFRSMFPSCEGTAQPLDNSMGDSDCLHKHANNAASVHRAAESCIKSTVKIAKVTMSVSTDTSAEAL
Procedure, shortened: as §1

| SMILES | +/− RCB2 (rat CB2 receptor (rCB2)) | EC50 [1] | pEC50 [1] | pEC50 (rat CB2 receptor (rCB2)) |
| --- | --- | --- | --- | --- |
| O=C(c1nc(-c2ccccc2)n2c1CN(S(=O)(=O)c1ccc(F)cc1)CC2)N1CCOCC1 [Compound 105, (7-(4-fluorophenylsulfonyl)-3-phenyl-5,6,7,8-tetrahydroimidazo[1,5-a]pyrazine-1-yl)(morpholino)methanone] | − | > 10000 nM |  |  |
| CNC(=O)[C@@H](NC(=O)c1nc(-c2ccccc2)n2c1CN(S(=O)(=O)c1ccc(Cl)cc1)CC2)C(C)(C)C [Compound 106, (S)-7-(4-chlorophenylsulfonyl)-N-(3,3-dimethyl-1-(methylamino)-1-oxobutan-2-yl)-3-phenyl-5,6,7,8-tetrahydroimidazo[1,5-a]pyrazine-1-carboxamide] | − |  | < 5.00 |  |
| CNC(=O)[C@H](C)NC(=O)c1nc(-c2ccccc2)n2c1CN(S(=O)(=O)c1ccc(F)cc1)CC2 [Compound 110, (S)-7-(4-fluorophenylsulfonyl)-N-(1-(methylamino)-1-oxopropan-2-yl)-3-phenyl-5,6,7,8-tetrahydroimidazo[1,5-a]pyrazine-1-carboxamide] | + |  | < 5.00 |  |
| CCS(=O)(=O)N1CCn2c(-c3ccccc3)nc(C(=O)N[C@H](C)C3CCCCC3)c2C1 [Compound 111, (R)-N-(1-cyclohexylethyl)-7-(ethylsulfonyl)-3-phenyl-5,6,7,8-tetrahydroimidazo[1,5-a]pyrazine-1-carboxamide] |  |  | < 5.00 | < 5.00 |
| CCS(=O)(=O)N1CCn2c(-c3ccccc3)nc(C(=O)NC3C4(C)CCC(C4)C3(C)C)c2C1 (stereo not drawn) [Compound 112, 7-(ethylsulfonyl)-3-phenyl-N-(1,3,3-trimethylbicyclo[2.2.1]heptan-2-yl)-5,6,7,8-tetrahydroimidazo[1,5-a]pyrazine-1-carboxamide] | − |  | < 5.00 |  |
| CCS(=O)(=O)N1CCn2c(-c3ccccc3)nc(C(=O)N[C@@H](C)c3ccccc3)c2C1 [Compound 113, (S)-7-(ethylsulfonyl)-3-phenyl-N-(1-phenylethyl)-5,6,7,8-tetrahydroimidazo[1,5-a]pyrazine-1-carboxamide] | − |  | < 5.00 |  |
| CCS(=O)(=O)N1CCn2c(-c3ccccc3)nc(C(=O)Nc3ccccc3)c2C1 [Compound 114, 7-(ethylsulfonyl)-N,3-diphenyl-5,6,7,8-tetrahydroimidazo[1,5-a]pyrazine-1-carboxamide] | − | > 10000 nM |  |  |
| CCS(=O)(=O)N1CCn2c(-c3ccccc3)nc(C(=O)NN3CCCCC3)c2C1 [Compound 115, 7-(ethylsulfonyl)-3-phenyl-N-(piperidin-1-yl)-5,6,7,8-tetrahydroimidazo[1,5-a]pyrazine-1-carboxamide] | − | > 10000 nM |  |  |
| CCS(=O)(=O)N1CCn2c(-c3ccc(Cl)cc3)nc(C(=O)NCCC(C)C)c2C1 [Compound 116, 3-(4-chlorophenyl)-7-(ethylsulfonyl)-N-isopentyl-5,6,7,8-tetrahydroimidazo[1,5-a]pyrazine-1-carboxamide] | − |  | < 5.00 |  |
| CCS(=O)(=O)N1CCn2c(-c3ccccc3)nc(C(=O)NCC3CCOCC3)c2C1 [Compound 117, 7-(ethylsulfonyl)-3-phenyl-N-((tetrahydro-2H-pyran-4-yl)methyl)-5,6,7,8-tetrahydroimidazo[1,5-a]pyrazine-1-carboxamide] | − | > 10000 nM |  |  |
| CCS(=O)(=O)N1CCn2c(-c3ccccc3)nc(C(=O)NC3CCCCC3)c2C1 [Compound 118, N-cyclohexyl-7-(ethylsulfonyl)-3-phenyl-5,6,7,8-tetrahydroimidazo[1,5-a]pyrazine-1-carboxamide] | − |  | < 5.00 |  |
| CC12CCC(C1)C(C)(C)C2NC(=O)c1nc(-c2ccccc2)n2c1CN(C(=O)C1CC1)CC2 (stereo not drawn) [Compound 119, 7-(cyclopropanecarbonyl)-3-phenyl-N-(1,3,3-trimethyl-bicyclo [2.2.1]heptan-2-yl)-5,6,7,8-tetrahydroimidazo[1,5-a]pyrazine-1-carboxamide] | − |  | < 5.00 |  |
| CC12CCC(C1)C(C)(C)C2NC(=O)c1nc(-c2ccccc2)n2c1CN(C(=O)c1ccccc1)CC2 (stereo not drawn) [Compound 120, 7-benzoyl-3-phenyl-N-(1,3,3-trimethylbicyclo[2.2.1]heptan-2-yl)-5,6,7,8-tetrahydroimidazo[1,5-a]pyrazine-1-carboxamide] | + |  | < 5.00 |  |
| CC12CCC(C1)C(C)(C)C2NC(=O)c1nc(-c2ccccc2)n2c1CN(C(=O)C1CCOC1)CC2 (stereo not drawn) [Compound 121, 3-phenyl-7-(tetrahydrofuran-3-carbonyl)-N-(1,3,3-trimethylbicyclo[2.2.1]heptan-2-yl)-5,6,7,8-tetrahydroimidazo[1,5-a]pyrazine-1-carboxamide] | − |  | < 5.00 |  |
| CC12CCC(C1)C(C)(C)C2NC(=O)c1nc(-c2ccccc2)n2c1CN(C(=O)c1ccco1)CC2 (stereo not drawn) [Compound 122, 7-(furan-2-carbonyl)-3-phenyl-N-(1,3,3-trimethylbicyclo[2.2.1]heptan-2-yl)-5,6,7,8-tetrahydroimidazo[1,5-a]pyrazine-1-carboxamide] | − | > 10000 nM |  |  |
| CC(C)(C)C(=O)N1CCn2c(-c3ccccc3)nc(C(=O)NC3C4(C)CCC(C4)C3(C)C)c2C1 (stereo not drawn) [Compound 123, 3-phenyl-7-pivaloyl-N-(1,3,3-trimethylbicyclo[2.2.1]heptan-2-yl)-5,6,7,8-tetrahydroimidazo[1,5-a]pyrazine-1-carboxamide] | − |  | < 5.00 |  |
| C[C@H](NC(=O)c1nc(-c2ccccc2)n2c1CN(C(=O)C1CC1)CC2)c1ccccc1 [Compound 124, (S)-7-(cyclopropanecarbonyl)-3-phenyl-N-(1-phenylethyl)-5,6,7,8-tetrahydroimidazo[1,5-a]pyrazine-1-carboxamide] | − |  | < 5.00 |  |
| C[C@H](NC(=O)c1nc(-c2ccccc2)n2c1CN(C(=O)c1ccccc1)CC2)c1ccccc1 [Compound 125, (S)-7-benzoyl-3-phenyl-N-(1-phenylethyl)-5,6,7,8-tetrahydroimidazo[1,5-a]pyrazine-1-carboxamide] | − |  | < 5.00 |  |
| CNC(=O)[C@@H](NC(=O)c1nc(-c2ccccc2)n2c1CN(C(=O)C1CC1)CC2)C(C)(C)C [Compound 126, (S)-7-(cyclopropanecarbonyl)-N-(3,3-dimethyl-1-(methylamino)-1-oxobutan-2-yl)-3-phenyl-5,6,7,8-tetrahydroimidazo[1,5-a]pyrazine-1-carboxamide] | − |  | < 5.00 |  |
| CNC(=O)[C@@H](NC(=O)c1nc(-c2ccccc2)n2c1CN(C(=O)c1ccccc1)CC2)C(C)(C)C [Compound 127, (S)-7-benzoyl-N-(3,3-dimethyl-1-(methylamino)-1-oxobutan-2-yl)-3-phenyl-5,6,7,8-tetrahydroimidazo[1,5-a]pyrazine-1-carboxamide] |  |  | < 5.00 | < 5.00 |
| CNC(=O)[C@@H](NC(=O)c1nc(-c2ccccc2)n2c1CN(C(=O)c1ccco1)CC2)C(C)(C)C [Compound 128, (S)-N-(3,3-dimethyl-1-(methylamino)-1-oxobutan-2-yl)-7-(furan-2-carbonyl)-3-phenyl-5,6,7,8-tetrahydroimidazo[1,5-a]pyrazine-1-carboxamide] | − |  | < 5.00 |  |
| O=C(Nc1ccccc1)c1nc(-c2ccccc2)n2c1CN(C(=O)C1CC1)CC2 [Compound 129, 7-(cyclopropanecarbonyl)-N,3-diphenyl-5,6,7,8-tetrahydroimidazo[1,5-a]pyrazine-1-carboxamide] | − | > 10000 nM |  |  |
| CC(C)CCNC(=O)c1nc(-c2ccc(Cl)cc2)n2c1CN(C(=O)c1ccccc1)CC2 [Compound 130, 7-benzoyl-3-(4-chlorophenyl)-N-isopentyl-5,6,7,8-tetrahydroimidazo[1,5-a]pyrazine-1-carboxamide] | − |  | < 5.00 |  |
| CC(C)CCNC(=O)c1nc(-c2ccc(Cl)cc2)n2c1CN(C(=O)C1CC1)CC2 [Compound 131, 3-(4-chlorophenyl)-7-(cyclopropanecarbonyl)-N-isopentyl-5,6,7,8-tetrahydroimidazo[1,5-a]pyrazine-1-carboxamide] | − |  | < 5.00 |  |
| C[C@@H](NC(=O)c1nc(-c2ccccc2)n2c1CN(C(=O)C1CC1)CC2)C1CCCCC1 [Compound 132, (R)-N-(1-cyclohexylethyl)-7-(cyclopropanecarbonyl)-3-phenyl-5,6,7,8-tetrahydroimidazo[1,5-a]pyrazine-1-carboxamide] | − |  | < 5.00 |  |
| C[C@@H](NC(=O)c1nc(-c2ccccc2)n2c1CN(C(=O)C(C)(C)C)CC2)C1CCCCC1 [Compound 133, (R)-N-(1-cyclohexylethyl)-3-phenyl-7-pivaloyl-5,6,7,8-tetrahydroimidazo[1,5-a]pyrazine-1-carboxamide] | − |  | < 5.00 |  |
| O=C(NCC1CCOCC1)c1nc(-c2ccccc2)n2c1CN(C(=O)C1CC1)CC2 [Compound 134, 7-(cyclopropanecarbonyl)-3-phenyl-N-((tetrahydro-2H-pyran-4-yl)methyl)-5,6,7,8-tetrahydroimidazo[1,5-a]pyrazine-1-carboxamide] | − | > 10000 nM |  |  |
